PubChem BioAssay (NCI)
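Assay format: 96-well plates, 48-hour exposure. The concentration for full growth arrest is given as TGI.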

Experiments:
Assay in all cases: DTP human tumour cell line panel, 48 h
NCI-H522 lung = tested on: NCI-H522 lung
HOP-62 NSCLC = tested on: HOP-62 NSCLC
OVCAR-4 ovarian = tested on: OVCAR-4 ovarian
HS 578T breast = tested on: HS 578T breast
OVCAR-3 ovarian = tested on: OVCAR-3 ovarian
HCT-15 colon = tested on: HCT-15 colon
NCI/ADR-RES ovarian = tested on: NCI/ADR-RES ovarian
SW-620 colon = tested on: SW-620 colon
SF-295 CNS = tested on: SF-295 CNS
COLO 205 colon = tested on: COLO 205 colon
MDA-MB-435 = tested on: MDA-MB-435
SNB-19 CNS = tested on: SNB-19 CNS
SK-OV-3 ovarian = tested on: SK-OV-3 ovarian
ACHN renal = tested on: ACHN renal
SN12C renal = tested on: SN12C renal
MDA-N = tested on: MDA-N
UO-31 renal = tested on: UO-31 renal
A549 NSCLC = tested on: A549 NSCLC
KM12 colon = tested on: KM12 colon
UACC-62 melanoma = tested on: UACC-62 melanoma
TK-10 renal = tested on: TK-10 renal
NCI-H460 lung = tested on: NCI-H460 lung
HT29 colon = tested on: HT29 colon
LOX IMVI melanoma = tested on: LOX IMVI melanoma
OVCAR-5 ovarian = tested on: OVCAR-5 ovarian
IGROV1 ovarian = tested on: IGROV1 ovarian
M14 melanoma = tested on: M14 melanoma
MDA-MB-231 breast = tested on: MDA-MB-231 breast
HCT-116 colon = tested on: HCT-116 colon
U251 CNS = tested on: U251 CNS
MALME-3M melanoma = tested on: MALME-3M melanoma
NCI-H226 lung = tested on: NCI-H226 lung
OVCAR-8 ovarian = tested on: OVCAR-8 ovarian
A498 renal = tested on: A498 renal
UACC-257 melanoma = tested on: UACC-257 melanoma
MOLT-4 leukemia = tested on: MOLT-4 leukemia
T-47D breast = tested on: T-47D breast
786-0 renal = tested on: 786-0 renal
SNB-75 CNS = tested on: SNB-75 CNS
SK-MEL-5 melanoma = tested on: SK-MEL-5 melanoma
EKVX NSCLC = tested on: EKVX NSCLC
RPMI-8226 leukemia = tested on: RPMI-8226 leukemia
SF-539 CNS = tested on: SF-539 CNS
SF-268 CNS = tested on: SF-268 CNS
SK-MEL-2 melanoma = tested on: SK-MEL-2 melanoma
MCF7 breast = tested on: MCF7 breast
HOP-92 NSCLC = tested on: HOP-92 NSCLC
BT-549 breast = tested on: BT-549 breast
K-562 leukemia = tested on: K-562 leukemia
PC-3 prostate = tested on: PC-3 prostate
CAKI-1 renal = tested on: CAKI-1 renal
HCC-2998 colon = tested on: HCC-2998 colon
DU-145 prostate = tested on: DU-145 prostate
SK-MEL-28 melanoma = tested on: SK-MEL-28 melanoma
NCI-H23 lung = tested on: NCI-H23 lung
RXF 393 renal = tested on: RXF 393 renal
CCRF-CEM leukemia = tested on: CCRF-CEM leukemia
HL-60(TB) leukemia = tested on: HL-60(TB) leukemia

Measured: TGI

COc1ccc(N2C(=O)C3c4[nH]c5cccc(Cl)c5c4C4CCC(C(C)(C)C)CC4C3C2=O)cc1 (stereo not drawn)
53.2 µM: SNB-75 CNS
53.5 µM: HOP-62 NSCLC
90.7 µM: HS 578T breast
not listed: RXF 393 renal | CCRF-CEM leukemia | HL-60(TB) leukemia
> 100 µM: all other assays above

C[C@@H]1OC(=O)C[C@H]2CC(=O)N(CCC3CN(C(=O)c4ccccc4)c4ccccc43)C[C@@H]21 (stereo partly drawn)
not listed: SN12C renal | LOX IMVI melanoma | NCI-H226 lung | SF-539 CNS | CCRF-CEM leukemia | HL-60(TB) leukemia
> 100 µM: all other assays above

Cc1n[nH]c(=O)n1/N=C/c1cccc(Cl)c1
39.7 µM: HS 578T breast
not listed: NCI-H522 lung | TK-10 renal | LOX IMVI melanoma | IGROV1 ovarian | SK-MEL-5 melanoma | HOP-92 NSCLC | HL-60(TB) leukemia
> 100 µM: all other assays above

COc1ccc(-n2cnc3c(N)nc(N)nc32)cc1
87 µM: HS 578T breast
77.9 µM: SNB-75 CNS
not listed: NCI-H460 lung | LOX IMVI melanoma | K-562 leukemia | HL-60(TB) leukemia
> 100 µM: all other assays above

COc1ccc2c(c1)/C(=C\c1c(-c3ccccc3)nc3n1CCS3)C(=O)N2
21.4 µM: IGROV1 ovarian
19.6 µM: KM12 colon
51.8 µM: OVCAR-5 ovarian
27.7 µM: SK-MEL-28 melanoma
20.3 µM: U251 CNS
47.5 µM: OVCAR-8 ovarian
21.3 µM: A498 renal
22.9 µM: HCC-2998 colon
19.1 µM: SF-539 CNS
11.2 µM: COLO 205 colon
40.6 µM: HCT-15 colon
16.9 µM: MOLT-4 leukemia
32.2 µM: RPMI-8226 leukemia
27.4 µM: UACC-257 melanoma
7.19 µM: MDA-MB-435
26.9 µM: CCRF-CEM leukemia
34.2 µM: UO-31 renal
55.9 µM: A549 NSCLC
15.1 µM: SF-295 CNS
36.8 µM: SNB-75 CNS
60 µM: DU-145 prostate
11.4 µM: HL-60(TB) leukemia
18.2 µM: UACC-62 melanoma | HCT-116 colon
16.3 µM: SW-620 colon
35.4 µM: NCI/ADR-RES ovarian
28.6 µM: 786-0 renal
23 µM: M14 melanoma
> 100 µM: SNB-19 CNS
20.6 µM: LOX IMVI melanoma
37.4 µM: CAKI-1 renal
30.8 µM: HOP-92 NSCLC
34.5 µM: SK-OV-3 ovarian
56.8 µM: ACHN renal
17.9 µM: MDA-MB-231 breast
20.2 µM: SK-MEL-2 melanoma
34.3 µM: RXF 393 renal
14.4 µM: NCI-H460 lung
33.4 µM: NCI-H23 lung
27.8 µM: TK-10 renal
27.6 µM: HOP-62 NSCLC | SN12C renal
32.7 µM: BT-549 breast
38.7 µM: HS 578T breast
29 µM: MCF7 breast
30.7 µM: MALME-3M melanoma
61.6 µM: T-47D breast
5.62 µM: MDA-N
17.2 µM: PC-3 prostate
24.4 µM: NCI-H522 lung
15.6 µM: OVCAR-3 ovarian
48 µM: EKVX NSCLC
28.1 µM: SF-268 CNS
17 µM: SK-MEL-5 melanoma | K-562 leukemia
16 µM: HT29 colon
